“Also recorded” adds a separate entry of the source.
System: adhesion of bacteria
Test: Anti-adhesion assay (not further specified)
Format: cell-based
Text: Further, quercetin and myricetin, which both share the catechin or epicatechin-like nucleus with leucocyanins but have R^2=H or OH, have been tested in the anti-adhesion assay and show no activity. […] Further, as described previously herein, one of the anti-adhesion assays described herein compares the ability of a substance to inhibit binding relative to mannose inhibition of such adhesion, and it is therefore believed that a carbohydrate moiety is involved in conferring anti-adhesion activity.

Compound	anti-adhesion activity
O=c1c(O)c(-c2cc(O)c(O)c(O)c2)oc2cc(O)cc(O)c12 [myricetin]	no activity
O=c1c(O)c(-c2ccc(O)c(O)c2)oc2cc(O)cc(O)c12 [quercetin]	no activity
myricetin-3-pyranoside	some anti-adhesion activity; also recorded: does have anti-adhesion activity

— US6440471B2, “Plant proanthocyanidin extracts” (JLB, Inc., priority 1999, dated 2002)
